# The supplement of paper PMC13380429
# Columns and labels:
# Conditions in all cases: 72 h
# Caco-2 [1] = assay: cell viability relative to DMSO; higher = less toxic
# HepG2 [2] = assay: as above
# U2OS [3] = assay: as above
# Vero E6 [4] = assay: as above
# Caco-2 [5] = assay: relative viability EC50 (midpoint between 100% and the lowest measured viability); higher = less toxic
# HepG2 [6] = assay: as above
# U2OS [7] = assay: as above
# Vero E6 [8] = assay: as above
# Caco-2 [9] = assay: drug sensitivity score (DSS) for viability; higher = more toxic; extreme values may be limits of the assay
# HepG2 [10] = assay: as above
# U2OS [11] = assay: as above
# Vero E6 [12] = assay: as above
# Calu-3 [13] = assay: cell viability relative to DMSO; higher = less toxic
# Calu-3 [14] = assay: relative viability EC50 (midpoint between 100% and the lowest measured viability); higher = less toxic
# Calu-3 [15] = assay: drug sensitivity score (DSS) for viability; higher = more toxic; extreme values may be limits of the assay
SMILES,cell viability (Caco-2 [1]; 1 nM),cell viability (Caco-2 [1]; 10 nM),cell viability (Caco-2 [1]; 100 nM),cell viability (Caco-2 [1]; 1000 nM),cell viability (Caco-2 [1]; 10000 nM),cell viability (HepG2 [2]; 1 nM),cell viability (HepG2 [2]; 10 nM),cell viability (HepG2 [2]; 100 nM),cell viability (HepG2 [2]; 1000 nM),cell viability (HepG2 [2]; 10000 nM),cell viability (U2OS [3]; 1 nM),cell viability (U2OS [3]; 10 nM),cell viability (U2OS [3]; 100 nM),cell viability (U2OS [3]; 1000 nM),cell viability (U2OS [3]; 10000 nM),cell viability (Vero E6 [4]; 1 nM),cell viability (Vero E6 [4]; 10 nM),cell viability (Vero E6 [4]; 100 nM),cell viability (Vero E6 [4]; 1000 nM),cell viability (Vero E6 [4]; 10000 nM),relative viability EC50 (Caco-2 [5]),relative viability EC50 (HepG2 [6]),relative viability EC50 (U2OS [7]),relative viability EC50 (Vero E6 [8]),drug sensitivity score (Caco-2 [9]),drug sensitivity score (HepG2 [10]),drug sensitivity score (U2OS [11]),drug sensitivity score (Vero E6 [12]),cell viability (Calu-3 [13]; 1 nM),cell viability (Calu-3 [13]; 10 nM),cell viability (Calu-3 [13]; 100 nM),cell viability (Calu-3 [13]; 1000 nM),cell viability (Calu-3 [13]; 10000 nM),relative viability EC50 (Calu-3 [14]),drug sensitivity score (Calu-3 [15])
CC(C)c1ccc(NC(=O)c2cccs2)c(-c2nc3ccccc3[nH]c2=O)c1 [ML281],102%,102%,96.5%,102%,93.5%,103%,106%,105%,95.7%,102%,111%,105%,101%,102%,98.3%,96.3%,101%,97%,95.5%,96.1%,> 10 µM,> 10 µM,> 10 µM,> 10 µM,0,0,0,0,–,–,–,–,–,–,–
C=C(C)[C@@H]1CC[C@]2(C(=O)O)CC[C@]3(C)[C@H](CC[C@@H]4[C@@]5(C)CC[C@H](O)C(C)(C)[C@@H]5CC[C@]43C)[C@@H]12 [betulinic-acid],102%,108%,92.3%,112%,102%,109%,97.4%,114%,101%,113%,101%,101%,98%,99%,95%,–,–,–,–,–,> 10 µM,> 10 µM,> 10 µM,–,0,0,0,–,93.1%,97.9%,93%,106%,100%,> 10 µM,0
CCCC(CCC)C(=O)NCC(N)=O [valrocemide],95.6%,94.1%,91.5%,90.9%,97.6%,94.6%,101%,95.6%,102%,101%,104%,101%,97.7%,104%,98.9%,97.3%,104%,104%,97.8%,101%,> 10 µM,> 10 µM,> 10 µM,> 10 µM,0,0,0,0,–,–,–,–,–,–,–
O=S(=O)(O)Oc1ccc(C(c2ccc(OS(=O)(=O)O)cc2)c2ccccn2)cc1 [sodium-picosulfate],88.4%,102%,96.3%,102%,106%,–,–,–,–,–,102%,106%,97.1%,104%,99.1%,–,–,–,–,–,> 10 µM,–,> 10 µM,–,0,–,0,–,87.6%,95%,82.2%,100%,93.8%,> 10 µM,0
O=c1[nH]c(=O)n([C@H]2C[C@H](O)[C@@H](CO)O2)cc1/C=C/Br [brivudine],97%,111%,104%,109%,100%,–,–,–,–,–,94.4%,98.5%,94.5%,104%,98%,–,–,–,–,–,> 10 µM,–,> 10 µM,–,0,–,0,–,–,–,–,–,–,–,–
NC(=O)CN1CC(c2ccccc2)CC1=O (stereo unspecified) [phenylpiracetam],104%,103%,93.1%,102%,91.8%,112%,107%,104%,94%,104%,99.3%,102%,98.1%,102%,98.1%,–,–,–,–,–,> 10 µM,> 10 µM,> 10 µM,–,0,0,0,–,103%,97.3%,99.5%,98.5%,91.7%,> 10 µM,0
O=C(Nc1cccnc1)N1CCC(Cc2cccc(Oc3ccc(C(F)(F)F)cn3)c2)CC1 [PF-3845],99.7%,103%,90.3%,92.4%,66.9%,109%,102%,98.3%,101%,32.7%,97.3%,107%,101%,98.5%,82.7%,103%,96.8%,89.9%,101%,78.7%,–,3.25 µM,> 10 µM,> 10 µM,2.4,3.6,0.6,0.6,103%,105%,104%,102%,79.1%,> 10 µM,0.5
O=C(OC[C@H]1O[C@@H](OC(=O)c2cc(O)c(O)c(OC(=O)c3cc(O)c(O)c(O)c3)c2)[C@H](OC(=O)c2cc(O)c(O)c(OC(=O)c3cc(O)c(O)c(O)c3)c2)[C@@H](OC(=O)c2cc(O)c(O)c(OC(=O)c3cc(O)c(O)c(O)c3)c2)[C@@H]1OC(=O)c1cc(O)c(O)c(OC(=O)c2cc(O)c(O)c(O)c2)c1)c1cc(O)c(O)c(OC(=O)c2cc(O)c(O)c(O)c2)c1 [tannic-acid],99.6%,93.5%,90.5%,99.1%,43.5%,108%,94.6%,104%,104%,74.2%,97.7%,98.5%,93.7%,97.8%,53.1%,103%,109%,102%,77.4%,48.8%,3.04 µM,–,–,1.1 µM,3.2,0.8,2.7,5.7,94.4%,99.9%,98.6%,108%,78.8%,> 10 µM,0.4
N[C@@H](C(=O)O)c1cc(O)ccc1Cl [CHPG],94.2%,91.7%,94.8%,98.7%,96%,–,–,–,–,–,97.6%,99%,98.5%,104%,103%,94.9%,93.4%,92.2%,94.6%,108%,> 10 µM,–,> 10 µM,> 10 µM,0,–,0,0,–,–,–,–,–,–,–
CCN(CCCCOC(=O)c1ccc(OC)c(OC)c1)C(C)Cc1ccc(OC)cc1 (stereo unspecified) [mebeverine],101%,96.3%,97.2%,90.8%,83.8%,105%,112%,100%,103%,91.6%,102%,99.4%,99.1%,102%,96.3%,–,–,–,–,–,> 10 µM,> 10 µM,> 10 µM,–,0.6,0,0,–,95.2%,98.3%,101%,100%,93.8%,> 10 µM,0
FC(F)(F)c1cc(NC(=S)Nc2ccc(Br)cc2-c2nnn[nH]2)cc(C(F)(F)F)c1,96.6%,106%,95.3%,88.7%,57.9%,99.3%,92.7%,98.7%,90.4%,85.6%,99.9%,104%,97.7%,97.6%,97.5%,95.8%,102%,93.3%,102%,83%,–,> 10 µM,> 10 µM,> 10 µM,3.7,0.2,0,0.3,98.8%,102%,101%,103%,99.3%,> 10 µM,0
CS(=O)(=O)N1CCN(Cc2cc3nc(-c4cccc5[nH]ncc45)nc(N4CCOCC4)c3s2)CC1 [GDC-0941],–,–,–,–,–,–,–,–,–,–,–,–,–,–,–,–,–,–,–,–,0.158 µM,–,0.775 µM,–,11.6,9.2,6.9,6.5,–,–,–,–,–,0.438 µM,11.8
CCC(CC)[C@H](NC(C)=O)[C@@H]1[C@H](O)[C@@H](C(=O)O)C[C@H]1NC(=N)N [peramivir],98.8%,101%,104%,105%,102%,110%,98.6%,102%,110%,98.9%,103%,110%,98.9%,110%,104%,–,–,–,–,–,> 10 µM,> 10 µM,> 10 µM,–,0,0,0,–,93.3%,98.3%,98.1%,107%,101%,> 10 µM,0
COc1ccc(C2=N[C@@H](c3ccc(Cl)cc3)[C@@H](c3ccc(Cl)cc3)N2C(=O)N2CCNC(=O)C2)c(OC(C)C)c1 [nutlin-3],94.2%,92.1%,92.5%,97.9%,89.1%,104%,115%,109%,89.7%,35%,94.7%,93.6%,95.3%,98.7%,75.2%,106%,98.9%,94.5%,97.5%,63.7%,> 10 µM,1.95 µM,> 10 µM,–,0,5.3,1.1,2.1,91.6%,98.1%,89.7%,92.4%,108%,> 10 µM,0
CC1=CC[C@@H](C(C)(C)O)C[C@@H]1O [sobrepin],109%,121%,94.4%,103%,87.9%,109%,99.6%,114%,103%,110%,–,–,–,–,–,98%,99.7%,96.3%,98.1%,90.7%,> 10 µM,> 10 µM,–,> 10 µM,0,0,–,0,–,–,–,–,–,–,–
c1cnc(SCc2cccnc2)nc1 [tasuldine],96.5%,96.9%,101%,94.8%,101%,105%,105%,105%,106%,97.9%,101%,96.3%,101%,94.3%,99.9%,105%,98.5%,96.7%,102%,99.7%,> 10 µM,> 10 µM,> 10 µM,> 10 µM,0,0,0,0,–,–,–,–,–,–,–
